Measurements from patent publication US10131653B2, “Heterocyclic compound” (TAKEDA PHARMACEUTICAL COMPANY LIMITED, priority 2015, dated 2018).
Counter-ions that a name gives are not always drawn. Like-named read-outs stand apart in the source and are kept apart here. Each block holds one compound with its values, some of them ahead of it.

Columns and labels:
[1] = target: T1, human OX1 receptor (Homo sapiens, UniProt O43613); experiment: Measurement of orexin receptor antagonistic activity (calcium fluorescence, FLIPRtetra); type: cell-based; conditions: for inhibition at 10 µM: CHO, read-out: Human Orexin1 receptor inhibition (at 10 μM)
T1 construct: expressed in transfected cells; host or cells: CHO cells
T1 sequence (O43613 1-425): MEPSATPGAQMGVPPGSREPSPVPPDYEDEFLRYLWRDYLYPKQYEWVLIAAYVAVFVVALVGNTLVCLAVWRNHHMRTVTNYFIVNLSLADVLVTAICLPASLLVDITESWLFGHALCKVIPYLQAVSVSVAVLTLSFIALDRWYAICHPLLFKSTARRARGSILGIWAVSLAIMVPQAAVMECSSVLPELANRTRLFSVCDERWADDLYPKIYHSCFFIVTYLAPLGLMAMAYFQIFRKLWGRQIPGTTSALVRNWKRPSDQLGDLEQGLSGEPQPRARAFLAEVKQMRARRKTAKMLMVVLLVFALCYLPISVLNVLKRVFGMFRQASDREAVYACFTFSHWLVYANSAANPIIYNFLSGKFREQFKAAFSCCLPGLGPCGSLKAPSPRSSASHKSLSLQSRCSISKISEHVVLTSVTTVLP
Protocol: (§1) Measurement of Orexin Receptor Antagonistic Activity
(§2) CHO cells forcibly expressing human OX1 receptor or human OX2 receptor were seeded in each well of 384 well black transparent bottom plate (BD Falcon) at 7,500 cells/well, and cultured for one day in a 5% CO2 incubator at 37° C. […] The plate was stood for 30 min in a 5% CO2 incubator at 37° C., and further stood at room temperature for 30 min. A test compound prepared by diluting with assay buffer B (HBSS, 20 mM HEPES, 0.1% BSA) was added at 10 μL/well, and then OX-A (OX1 receptor, final concentration; 1 nM) or OX-A (OX2 receptor, final concentration; 0.3 nM) was added at 10 μL/well, and the fluorescence value was measured by FLIPRtetra (Molecular Devices) every one sec for 2 min.

[2] = target: T2, human OX2 receptor (Homo sapiens, UniProt O43614); experiment: as above; type: cell-based; conditions: for inhibition at 10 µM: CHO, read-out: Human Orexin2 receptor inhibition (at 10 μM)
T2 construct: expressed in transfected cells; host or cells: CHO cells
T2 sequence (O43614 1-444): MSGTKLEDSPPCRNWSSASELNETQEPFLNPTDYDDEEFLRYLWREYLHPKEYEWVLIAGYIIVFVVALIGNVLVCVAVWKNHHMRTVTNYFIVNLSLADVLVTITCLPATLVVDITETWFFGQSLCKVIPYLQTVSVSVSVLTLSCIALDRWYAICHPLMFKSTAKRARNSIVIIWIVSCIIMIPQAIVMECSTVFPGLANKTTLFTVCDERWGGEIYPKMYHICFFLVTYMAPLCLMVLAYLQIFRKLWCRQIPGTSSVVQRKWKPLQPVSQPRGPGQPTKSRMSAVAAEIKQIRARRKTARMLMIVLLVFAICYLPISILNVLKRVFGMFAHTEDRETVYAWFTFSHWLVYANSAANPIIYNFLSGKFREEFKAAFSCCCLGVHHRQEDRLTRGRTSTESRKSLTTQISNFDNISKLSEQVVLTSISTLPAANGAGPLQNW
Protocol: as §1, §2

[3] = 10 μM test compound, CHO cells expressing human OX1 receptor, OX-A 1 nM
[4] = 10 μM test compound, CHO cells expressing human OX2 receptor, OX-A 0.3 nM

Compound: Cc1cc(N2CCN(C(=O)c3cc(Cl)ccc3-c3nccs3)C[C@H](C)O2)nc(C)n1 [Example 88, (5-chloro-2-(1,3-thiazol-2-yl)phenyl)((7S)-2-(2,6-dimethylpyrimidin-4-yl)-7-methyl-1,2,5-oxadiazepan-5-yl)methanone hydrochloride]
inhibition at 10 µM [1, 3]: 101%
inhibition at 10 µM [2, 4]: 99%

Compound: Cc1cc(C)nc(N2CCN(C(=O)c3cccc(Cl)c3Cl)CCO2)n1 [Example 55, (2,3-dichlorophenyl) (2-(4,6-dimethylpyrimidin-2-yl)-1,2,5-oxadiazepan-5-yl)methanone]
inhibition at 10 µM [1, 3]: 18%
inhibition at 10 µM [2, 4]: 96%

Compound: COc1cc2c(cc1C(=O)N1CCON(c3nc(C)cc(C)n3)CC1)CCC2 [Example 77, (2-(4,6-dimethylpyrimidin-2-yl)-1,2,5-oxadiazepan-5-yl) (6-methoxy-2,3-dihydro-1H-inden-5-yl)methanone]
inhibition at 10 µM [1]: 12%
inhibition at 10 µM [2]: 69%

Compound: Cc1ccc(-n2nccn2)c(C(=O)N2CCON(c3cc(C)nc(C)n3)CC2)c1 [Example 4, (2-(2,6-dimethylpyrimidin-4-yl)-1,2,5-oxadiazepan-5-yl)(5-methyl-2-(2H-1,2,3-triazol-2-yl)phenyl)methanone]
inhibition at 10 µM [1, 3]: 62%
inhibition at 10 µM [2, 4]: 96%

Compound: Cc1cc(C)nc(N2CCN(C(=O)c3cccc4c3OC(C)(C)C4)CCO2)n1 [Example 75, (2,2-dimethyl-2,3-dihydro-1-benzofuran-7-yl) (2-(4,6-dimethylpyrimidin-2-yl)-1,2,5-oxadiazepan-5-yl)methanone]
inhibition at 10 µM [1]: 10%
inhibition at 10 µM [2]: 75%

Compound: C[C@H]1CN(C(=O)c2ccccc2-n2nccn2)CCN(c2cc(C(F)F)nc(C3CC3)n2)O1 [Example 95, ((7S)-2-(2-cyclopropyl-6-(difluoromethyl)pyrimidin-4-yl)-7-methyl-1,2,5-oxadiazepan-5-yl) (2-(2H-1,2,3-triazol-2-yl)phenyl)methanone]
inhibition at 10 µM [1, 3]: 100%
inhibition at 10 µM [2, 4]: 97%

Compound: Cc1cc(C)nc(N2CCN(C(=O)c3ccccc3-c3nccs3)C[C@H](C)O2)c1 [Example 91, ((7S)-2-(4,6-dimethylpyridin-2-yl)-7-methyl-1,2,5-oxadiazepan-5-yl)(2-(1,3-thiazol-2-yl)phenyl)methanone]
inhibition at 10 µM [1, 3]: 100%
inhibition at 10 µM [2, 4]: 100%

Compound: Cc1cc(N2CCN(C(=O)c3cc(F)ccc3-n3cccn3)CCO2)nc(C)n1 [Example 28, (2-(2,6-dimethyl-pyrimidin-4-yl)-1,2,5-oxadiazepan-5-yl) (5-fluoro-2-(1H-pyrazol-1-yl)phenyl) methanone]
inhibition at 10 µM [1, 3]: 23%
inhibition at 10 µM [2, 4]: 74%

Compound: COc1cccc(C(=O)N2CCON(c3nc(C)cc(C)n3)CC2)c1Cl [Example 60, (2-chloro-3-methoxyphenyl) (2-(4,6-dimethylpyrimidin-2-yl)-1,2,5-oxadiazepan-5-yl)methanone]
inhibition at 10 µM [1]: -1%
inhibition at 10 µM [2]: 3%

Compound: Cc1cc(N2CCN(C(=O)c3cc(Br)ccc3-n3nccn3)CCO2)nc(C)n1 [Example 26, (5-bromo-2-(2H-1,2,3-triazol-2-yl)phenyl) (2-(2,6-dimethyl-pyrimidin-4-yl)-1,2,5-oxadiazepan-5-yl)methanone]
inhibition at 10 µM [1, 3]: 83%
inhibition at 10 µM [2, 4]: 100%

Results, then the compound that gave them:

inhibition at 10 µM [1, 3]: -12%
inhibition at 10 µM [2, 4]: 18%
Compound: Cc1cc(N2CCN(C(=O)c3ccccc3C#N)C[C@H](C)O2)nc(C)n1 [Example 209, 2-(((7S)-2-(2,6-dimethylpyrimidin-4-yl)-7-methyl-1,2,5-oxadiazepan-5-yl)carbonyl)benzonitrile]

inhibition at 10 µM [1, 3]: 90%
inhibition at 10 µM [2, 4]: 100%
Compound: Cc1nc(C(F)F)cc(N2CCN(C(=O)c3cc(Cl)ccc3-n3nccn3)C[C@H](C)O2)n1 [Example 103, (5-chloro-2-(2H-1,2,3-triazol-2-yl)phenyl)((7S)-2-(6-(difluoromethyl)-2-methylpyrimidin-4-yl)-7-methyl-1,2,5-oxadiazepan-5-yl)methanone]

inhibition at 10 µM [1, 3]: 40%
inhibition at 10 µM [2, 4]: 102%
Compound: Cc1ncc(Cl)c(N2CCN(C(=O)c3cc(Cl)ccc3-n3nccn3)[C@H](C)CO2)n1 [Example 215, ((6R)-2-(5-chloro-2-methylpyrimidin-4-yl)-6-methyl-1,2,5-oxadiazepan-5-yl)(5-chloro-2-(2H-1,2,3-triazol-2-yl)phenyl)methanone]

inhibition at 10 µM [1, 3]: 99%
inhibition at 10 µM [2, 4]: 98%
Compound: C[C@@H]1CON(c2ccnc(C3CC3)n2)C[C@H](C)N1C(=O)c1ccccc1-n1nccn1 [Example 175, ((4S,6R)-2-(2-cyclopropylpyrimidin-4-yl)-4,6-dimethyl-1,2,5-oxadiazepan-5-yl) (2-(2H-1,2,3-triazol-2-yl)phenyl)methanone]

inhibition at 10 µM [1, 3]: 95%
inhibition at 10 µM [2, 4]: 100%
Compound: C[C@H]1CN(C(=O)c2ccccc2-n2nccn2)CCN(c2cc(C(F)(F)F)nc(C3CC3)n2)O1 [Example 97, ((7S)-2-(2-cyclopropyl-6-(trifluoromethyl)pyrimidin-4-yl)-7-methyl-1,2,5-oxadiazepan-5-yl) (2-(2H-1,2,3-triazol-2-yl)phenyl)methanone]

inhibition at 10 µM [1, 3]: 81%
inhibition at 10 µM [2, 4]: 102%
Compound: Cc1cc(N2CCN(C(=O)c3cc(Cl)ccc3-c3ncccn3)[C@H](C)CO2)nc(C)n1 [Example 195, (5-chloro-2-(pyrimidin-2-yl)phenyl)((6R)-2-(2,6-dimethylpyrimidin-4-yl)-6-methyl-1,2,5-oxadiazepan-5-yl)methanone]

Human Orexin1 receptor inhibition (at 10 μM) [1, 3]: 16%
Human Orexin2 receptor inhibition (at 10 μM) [2, 4]: 99%
Compound: Cc1cc(N2CCN(C(=O)c3cc(Cl)ccc3-n3nccn3)CC(C)O2)nc(C)n1 (stereo in doubt) [Example 212, (5-chloro-2-(2H-1,2,3-triazol-2-yl)phenyl)((7R)-2-(2,6-dimethylpyrimidin-4-yl)-7-methyl-1,2,5-oxadiazepan-5-yl)methanone]

inhibition at 10 µM [1, 3]: 23%
inhibition at 10 µM [2, 4]: 74%
Compound: COc1cccnc1N1CCN(C(=O)c2cc(C)ccc2-n2nccn2)[C@H](C)CO1 [Example 123, ((6R)-2-(3-methoxypyridin-2-yl)-6-methyl-1,2,5-oxadiazepan-5-yl) (5-methyl-2-(2H-1,2,3-triazol-2-yl)phenyl)methanone]

inhibition at 10 µM [1, 3]: 100%
inhibition at 10 µM [2, 4]: 98%
Compound: Cc1nc(N2CCN(C(=O)c3cc(F)ccc3-n3nccn3)[C@H](C)CO2)nc(C)c1Cl [Example 167, ((6R)-2-(5-chloro-4,6-dimethylpyrimidin-2-yl)-6-methyl-1,2,5-oxadiazepan-5-yl)(5-fluoro-2-(2H-1,2,3-triazol-2-yl)phenyl)methanone]

inhibition at 10 µM [1, 3]: 3%
inhibition at 10 µM [2, 4]: -6%
Compound: C[C@@H]1CON(c2ncc(F)c(O)n2)CCN1C(=O)c1ccccc1-n1nccn1 [Example 149, ((6R)-2-(5-fluoro-4-hydroxypyrimidin-2-yl)-6-methyl-1,2,5-oxadiazepan-5-yl) (2-(2H-1,2,3-triazol-2-yl)phenyl)methanone]

inhibition at 10 µM [1, 3]: 53%
inhibition at 10 µM [2, 4]: 100%
Compound: Cc1cc(N2CCN(C(=O)c3cc(Cl)ccc3-c3ncc(F)cn3)CCO2)nc(C)n1 [Example 224, (5-chloro-2-(5-fluoropyrimidin-2-yl)phenyl)(2-(2,6-dimethylpyrimidin-4-yl)-1,2,5-oxadiazepan-5-yl)methanone]

inhibition at 10 µM [1, 3]: 100%
inhibition at 10 µM [2, 4]: 102%
Compound: Cc1nccc(N2C[C@H](C)N(C(=O)c3ccccc3-c3nccs3)[C@H](C)CO2)n1 [Example 184, ((4S,6R)-4,6-dimethyl-2-(2-methylpyrimidin-4-yl)-1,2,5-oxadiazepan-5-yl)(2-(1,3-thiazol-2-yl)phenyl)methanone]

inhibition at 10 µM [1, 3]: 51%
inhibition at 10 µM [2, 4]: 97%
Compound: Cc1cc(N2CCN(C(=O)c3c(F)cccc3-n3nccn3)C[C@H](C)O2)nc(C)n1 [Example 210, ((7S)-2-(2,6-dimethylpyrimidin-4-yl)-7-methyl-1,2,5-oxadiazepan-5-yl)(2-fluoro-6-(2H-1,2,3-triazol-2-yl)phenyl)methanone]
